Results as given in patent US12171255B2, “Shisha, heat-not-burn, or combustion casing, product, and method of making the same” (Tobacco Technology, Inc., priority 2020, dated 2024).

Test system: microbial growth
Test: Inhibition of microbial growth (preservative effect)

Compound	effectiveness at inhibiting microbial growth compared with propylene glycol	amount that can inhibit microbial growth and act as a preservative (in casing)
O=C(O)CC(O)(CC(=O)O)C(=O)O [citric acid]	more effective at inhibiting microbial growth than propylene glycol	
CC(O)CO (centres unmarked) [propylene glycol]		above 15 % by weight
